System: participants with SSc-RP
Assay: Scleroderma Health Assessment Questionnaire (SHAQ): disability indices and visual analog scales
Format: in vivo, human
Settings: for SHAQ Alternative Disability Index, Mean / SHAQ Alternative Disability Index, Median / SHAQ Standard Disability Index, Mean / SHAQ Standard Disability Index, Median: Patients with Diagnosis of SSc
Source text: The standard, validated, patient reported outcome measures tool for SSc patients, the Scleroderma Health Assessment Questionnaire (SHAQ), will be used to assess the participant qualify of life. Details are attached in the Appendix. The participant quality of life will be scored, and a disability index calculated for each questionnaire completed by the patient at Screening and each in-clinic visit. The absolute change in participant quality of life from baseline to the end of each dosing period will be calculated similar to frequency data as before.
The SHAQ includes a Raynaud's VAS, which will be reported at screening and each in-clinic visit. The absolute change in Raynaud-VAS, assessed by the participants response to the SHAQ question ‘In the past 7 days, how much have your Raynaud's interfered with your daily activities?’ at baseline and the end of each dosing period will be calculated similar to frequency data as before.
The SHAQ is used to calculate a Disability Index to assess the participant qualify of life. The eight categories assessed by the Disability Index are 1) dressing and grooming, 2) arising, 3) eating, 4) walking, 5) hygiene, 6) reach, 7) grip, and 8) common daily activities. For each of these categories, patients report the amount of difficulty they have in performing two or three specific activities.
There are four possible responses for the Disability Index questions: • Without any difficulty=0 • With some difficulty=1 • With much difficulty=2 • Unable to do=3. • The highest score reported by the patient for any component question of the eight categories determines the score for that category. • If a component question is left blank or the response is too ambiguous to assign a score, then the score for that category is determined by the remaining completed question(s). • If all component questions are blank or if more than one answer is given, then follow up with the respondent is required. • If the respondent's mark is between the response columns, then move it to the closest one. If it's directly between the two, move it to the higher one.
Each of the disability items on the SHAQ has a companion aids/devices variable that is used to record what type(s) of assistance, if any, the participant uses for his/her usual activities. These variables (see below) are coded as follows: • 0=No assistance is needed. • 1=A special device is used by the patient in his/her usual activities. • 2=The patient usually needs help from another person. • 3=The patient usually needs BOTH a special device AND help from another person.
The scoring variables and scoring rules permit the computation of two disability indices, the Standard Disability Index and the Alternative Disability Index.
This question results in a new set of category scores that are computed by adjusting the score for each category, if necessary, based on the patient's use of an aid or device or assistance for that category. If either devices and/or help from another person are checked for a category, the score is set to “2”, unless the score is already “3” (i.e., scores of “0” or “1” are increased to “2”). For example, if the highest score for the dressing category is “1”, and the patient says they use a device for dressing, the computed category score would be “2”. The sum of the computed categories scores is then calculated and divided by the number of categories answered. This gives a score in the 0 to 3 range.
The aid and device variables are not used to calculate the alternative disability index; it is calculated by adding the scores for each of the categories and dividing by the number of categories answered. This gives a score in the 0 to 3 range.
The standard, validated, patient reported outcome measures tool for SSc patients, the SHAQ, was collected at the time points specified in the study schedules (FIG. 2 and FIGS. 4A and 4B) to assess the participant's quality of life. The SHAQ included a Raynaud's VAS that will also be reported separately.

[1] = Day 12, mITT Part A, SSc patients, cilnidipine 10 mg and/or tadalafil 5 mg as in the arm
[2] = Day 12, mITT Part A, SSc patients, cilnidipine 10 mg and/or tadalafil 5 mg as in the arm, subject 01-110 score excluded
[3] = Day 12, mITT Part A, SSc patients, cilnidipine 20 mg (+ tadalafil 5 mg in the combination arm)
[4] = In-Clinic Visit (Day 12), Cilnidipine 10 mg (N = 4), PP Population Part A
[5] = In-Clinic Visit (Day 12), Cilnidipine 20 mg (N = 4), PP Population Part A
[6] = In-Clinic Visit (Day 12), Pooled Cilnidipine 10 mg and Cilnidipine 10 mg + Tadalafil 5 mg (N = 9), PP Population Part A

## COCCOC(=O)C1=C(C)NC(C)=C(C(=O)OC/C=C/c2ccccc2)C1c1cccc([N+](=O)[O-])c1 (centres unmarked) [Cilnidipine, cilnidipine]
[1]
  SHAQ Visual Analogue Scale - Raynaud's, Change from Baseline, Mean: 0.167
  SHAQ Visual Analogue Scale - Raynaud's, Change from Baseline, Median: −0.100
  SHAQ Visual Analogue Scale - Raynaud's, In-Clinic Visit (Day 12), Mean: 2.300
  SHAQ Visual Analogue Scale - Raynaud's, In-Clinic Visit (Day 12), Median: 2.600
  SHAQ Visual Analogue Scale - Raynaud's, Percent Change from Baseline, Mean: 11.36%
  SHAQ Visual Analogue Scale - Raynaud's, Percent Change from Baseline, Median: −2.27%
[2]
  SHAQ Visual Analogue Scale - Breathing Problems, Change from Baseline, Mean: −0.400
  SHAQ Visual Analogue Scale - Breathing Problems, Change from Baseline, Median: 0.000
  SHAQ Visual Analogue Scale - Breathing Problems, In-Clinic Visit (Day 12), Mean: 2.100
  SHAQ Visual Analogue Scale - Breathing Problems, In-Clinic Visit (Day 12), Median: 0.000
  SHAQ Visual Analogue Scale - Breathing Problems, Percent Change from Baseline, Mean: −16.00%
  SHAQ Visual Analogue Scale - Breathing Problems, Percent Change from Baseline, Median: −16.00%
[3]
  SHAQ Alternative Disability Index, Change from Baseline, Mean: −0.083
  SHAQ Alternative Disability Index, Change from Baseline, Median: −0.125
  SHAQ Alternative Disability Index, In-Clinic Visit (Day 12), Mean: 0.125
  SHAQ Alternative Disability Index, In-Clinic Visit (Day 12), Median: 0.125
  SHAQ Alternative Disability Index, Percent Change from Baseline, Mean: −41.67%
  SHAQ Alternative Disability Index, Percent Change from Baseline, Median: −41.67%
  SHAQ Visual Analogue Scale - Breathing Problems, Change from Baseline, Mean: −0.833
  SHAQ Visual Analogue Scale - Breathing Problems, Change from Baseline, Median: −0.800
  SHAQ Visual Analogue Scale - Breathing Problems, In-Clinic Visit (Day 12), Mean: 0.300
  SHAQ Visual Analogue Scale - Breathing Problems, In-Clinic Visit (Day 12), Median: 0.400
  SHAQ Visual Analogue Scale - Breathing Problems, Percent Change from Baseline, Mean: −5.56%
  SHAQ Visual Analogue Scale - Breathing Problems, Percent Change from Baseline, Median: −66.67%
  SHAQ Visual Analogue Scale - Finger Ulcers, Change from Baseline, Mean: −0.933
  SHAQ Visual Analogue Scale - Finger Ulcers, Change from Baseline, Median: 0.000
  SHAQ Visual Analogue Scale - Finger Ulcers, In-Clinic Visit (Day 12), Mean: 0.867
  SHAQ Visual Analogue Scale - Finger Ulcers, In-Clinic Visit (Day 12), Median: 0.700
  SHAQ Visual Analogue Scale - Finger Ulcers, Percent Change from Baseline, Mean: 35.29%
  SHAQ Visual Analogue Scale - Finger Ulcers, Percent Change from Baseline, Median: 35.29%
  SHAQ Visual Analogue Scale - Intestinal Problems, Change from Baseline, Mean: 0.300
  SHAQ Visual Analogue Scale - Intestinal Problems, Change from Baseline, Median: 0.300
  SHAQ Visual Analogue Scale - Intestinal Problems, In-Clinic Visit (Day 12), Median: 1.300
  SHAQ Visual Analogue Scale - Intestinal Problems, Percent Change from Baseline, Mean: 35.00%
  SHAQ Visual Analogue Scale - Intestinal Problems, Percent Change from Baseline, Median: 35.00%
  SHAQ Visual Analogue Scale - Overall Disease Severity, Change from Baseline, Median: −1.600
  SHAQ Visual Analogue Scale - Overall Disease Severity, In-Clinic Visit (Day 12), Mean: 1.033
  SHAQ Visual Analogue Scale - Overall Disease Severity, In-Clinic Visit (Day 12), Median: 1.200
  SHAQ Visual Analogue Scale - Overall Disease Severity, Percent Change from Baseline, Median: −60.00%
  SHAQ Visual Analogue Scale - Pain, Change from Baseline, Mean: −1.100
  SHAQ Visual Analogue Scale - Pain, Change from Baseline, Median: −0.800
  SHAQ Visual Analogue Scale - Pain, In-Clinic Visit (Day 12), Mean: 1.067
  SHAQ Visual Analogue Scale - Pain, In-Clinic Visit (Day 12), Median: 0.700
  SHAQ Visual Analogue Scale - Pain, Percent Change from Baseline, Mean: −52.56%
  SHAQ Visual Analogue Scale - Pain, Percent Change from Baseline, Median: −53.33%
  SHAQ Visual Analogue Scale - Raynaud's, Change from Baseline, Median: −1.100
  SHAQ Visual Analogue Scale - Raynaud's, In-Clinic Visit (Day 12), Mean: 1.033
  SHAQ Visual Analogue Scale - Raynaud's, In-Clinic Visit (Day 12), Median: 1.100
  SHAQ Visual Analogue Scale - Raynaud's, Percent Change from Baseline, Median: −44.00%
[4]
  SHAQ Alternative Disability Index, Mean: 0.563
  SHAQ Alternative Disability Index, Median: 0.500
  SHAQ Standard Disability Index, Mean: 0.656
  SHAQ Standard Disability Index, Median: 0.563
[5]
  SHAQ Alternative Disability Index, Mean: 0.219
  SHAQ Alternative Disability Index, Median: 0.188
  SHAQ Standard Disability Index, Mean: 0.281
  SHAQ Standard Disability Index, Median: 0.188
[6]
  SHAQ Visual Analogue Scale - Finger Ulcers, Mean: 0.389
  SHAQ Visual Analogue Scale - Finger Ulcers, Median: 0.000
  SHAQ Visual Analogue Scale - Intestinal Problems, Mean: 1.217
  SHAQ Visual Analogue Scale - Intestinal Problems, Median: 0.700
  SHAQ Visual Analogue Scale - Overall Disease Severity, Mean: 2.439
